Assay results reported in patent publication US11331299B2, “Medicinal use of serrulatane diterpenes” (The University of Sydney, priority 2016, dated 2022).

How the values were obtained:
JMJD2C (h) = biological target: T1, JMJD2C (h) (Homo sapiens, UniProt Q9H3R0); assay: Epigenetic enzyme assay, Demethylases (KDMs); format: biochemical; conditions: read-out: % Inhibition of Control Values
T1 sequence (Q9H3R0 1-1056): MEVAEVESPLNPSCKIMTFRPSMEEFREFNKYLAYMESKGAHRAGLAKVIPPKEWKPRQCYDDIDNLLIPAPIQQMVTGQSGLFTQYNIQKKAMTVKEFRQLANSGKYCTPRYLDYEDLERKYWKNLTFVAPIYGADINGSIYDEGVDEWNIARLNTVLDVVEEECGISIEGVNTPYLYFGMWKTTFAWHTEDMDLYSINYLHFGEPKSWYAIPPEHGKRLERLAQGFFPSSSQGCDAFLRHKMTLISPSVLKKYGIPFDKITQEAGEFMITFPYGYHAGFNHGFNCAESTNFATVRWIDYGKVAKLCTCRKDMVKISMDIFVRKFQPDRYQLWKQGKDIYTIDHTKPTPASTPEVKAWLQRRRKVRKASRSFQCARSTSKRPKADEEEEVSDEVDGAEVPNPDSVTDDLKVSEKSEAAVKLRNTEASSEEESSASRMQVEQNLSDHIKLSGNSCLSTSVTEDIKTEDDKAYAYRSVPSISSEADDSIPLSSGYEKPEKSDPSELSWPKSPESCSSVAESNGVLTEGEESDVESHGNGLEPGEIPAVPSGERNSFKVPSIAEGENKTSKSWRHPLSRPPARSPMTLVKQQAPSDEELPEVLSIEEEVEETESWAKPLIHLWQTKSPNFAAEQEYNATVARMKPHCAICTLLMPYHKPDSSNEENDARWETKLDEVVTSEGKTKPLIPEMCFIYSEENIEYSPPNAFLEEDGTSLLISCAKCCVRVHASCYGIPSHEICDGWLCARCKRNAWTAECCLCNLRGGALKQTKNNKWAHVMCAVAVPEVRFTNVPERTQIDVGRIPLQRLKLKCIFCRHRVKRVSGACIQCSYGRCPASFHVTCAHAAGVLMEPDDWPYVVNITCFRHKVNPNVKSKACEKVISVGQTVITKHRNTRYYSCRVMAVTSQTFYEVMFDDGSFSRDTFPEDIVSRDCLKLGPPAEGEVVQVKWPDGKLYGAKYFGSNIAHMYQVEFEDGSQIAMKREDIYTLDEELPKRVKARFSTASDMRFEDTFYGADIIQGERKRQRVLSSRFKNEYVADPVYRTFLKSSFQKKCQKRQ

JARID1B (h) = JARID1B (h) (Homo sapiens, UniProt Q9UGL1); assay: Epigenetic enzyme assay, Demethylases (KDMs); format: biochemical; conditions: for inhibition at 10 µM: read-out: % Inhibition of Control Values
JARID1B (h), sequence (Q9UGL1 whole entry): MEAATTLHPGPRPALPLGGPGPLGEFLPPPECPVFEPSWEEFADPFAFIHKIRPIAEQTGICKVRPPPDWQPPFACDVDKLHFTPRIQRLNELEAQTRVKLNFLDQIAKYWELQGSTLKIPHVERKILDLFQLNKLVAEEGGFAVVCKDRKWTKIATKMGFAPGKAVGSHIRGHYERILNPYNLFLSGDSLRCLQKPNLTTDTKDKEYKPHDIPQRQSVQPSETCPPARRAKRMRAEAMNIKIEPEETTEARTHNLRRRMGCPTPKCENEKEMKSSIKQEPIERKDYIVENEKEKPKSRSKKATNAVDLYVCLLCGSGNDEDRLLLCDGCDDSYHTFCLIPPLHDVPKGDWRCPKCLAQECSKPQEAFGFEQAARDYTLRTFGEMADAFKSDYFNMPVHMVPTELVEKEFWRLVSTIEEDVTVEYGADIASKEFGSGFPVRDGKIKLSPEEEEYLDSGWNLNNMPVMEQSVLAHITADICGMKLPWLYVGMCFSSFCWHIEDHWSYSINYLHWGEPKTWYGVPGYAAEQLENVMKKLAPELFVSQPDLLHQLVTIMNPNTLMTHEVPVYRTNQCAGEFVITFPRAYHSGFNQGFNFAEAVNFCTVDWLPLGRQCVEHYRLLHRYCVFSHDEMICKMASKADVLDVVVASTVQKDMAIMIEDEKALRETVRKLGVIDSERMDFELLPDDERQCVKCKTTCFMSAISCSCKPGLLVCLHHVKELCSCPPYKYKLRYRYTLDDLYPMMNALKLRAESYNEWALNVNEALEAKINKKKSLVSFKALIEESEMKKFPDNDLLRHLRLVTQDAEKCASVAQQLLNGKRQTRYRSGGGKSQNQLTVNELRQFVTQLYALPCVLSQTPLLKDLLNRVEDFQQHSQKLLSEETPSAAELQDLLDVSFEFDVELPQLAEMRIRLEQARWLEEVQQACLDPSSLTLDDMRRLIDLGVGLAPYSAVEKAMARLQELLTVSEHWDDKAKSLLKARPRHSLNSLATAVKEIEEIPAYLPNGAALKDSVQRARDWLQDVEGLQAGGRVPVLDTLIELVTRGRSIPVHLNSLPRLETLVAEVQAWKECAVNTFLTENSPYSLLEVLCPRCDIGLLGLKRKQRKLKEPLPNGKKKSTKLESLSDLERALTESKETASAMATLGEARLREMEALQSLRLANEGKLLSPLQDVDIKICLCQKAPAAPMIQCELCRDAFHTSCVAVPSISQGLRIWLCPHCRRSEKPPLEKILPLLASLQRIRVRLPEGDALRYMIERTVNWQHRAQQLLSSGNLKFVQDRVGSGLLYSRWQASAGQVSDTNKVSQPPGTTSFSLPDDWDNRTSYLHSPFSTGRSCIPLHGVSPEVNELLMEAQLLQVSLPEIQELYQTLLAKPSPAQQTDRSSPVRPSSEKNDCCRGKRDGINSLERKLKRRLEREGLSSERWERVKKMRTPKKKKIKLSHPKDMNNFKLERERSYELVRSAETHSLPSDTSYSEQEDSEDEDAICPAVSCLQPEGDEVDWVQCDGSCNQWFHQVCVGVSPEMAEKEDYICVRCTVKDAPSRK

EZH1/EED/SUZ12 (h) = EZH1/EED/SUZ12 (h) (Homo sapiens, UniProt Q92800); assay: Epigenetic enzyme assay, Methyltransferases (MTs); format: biochemical; conditions: read-out: % Inhibition of Control Values
EZH1/EED/SUZ12 (h), sequence (Q92800 whole entry): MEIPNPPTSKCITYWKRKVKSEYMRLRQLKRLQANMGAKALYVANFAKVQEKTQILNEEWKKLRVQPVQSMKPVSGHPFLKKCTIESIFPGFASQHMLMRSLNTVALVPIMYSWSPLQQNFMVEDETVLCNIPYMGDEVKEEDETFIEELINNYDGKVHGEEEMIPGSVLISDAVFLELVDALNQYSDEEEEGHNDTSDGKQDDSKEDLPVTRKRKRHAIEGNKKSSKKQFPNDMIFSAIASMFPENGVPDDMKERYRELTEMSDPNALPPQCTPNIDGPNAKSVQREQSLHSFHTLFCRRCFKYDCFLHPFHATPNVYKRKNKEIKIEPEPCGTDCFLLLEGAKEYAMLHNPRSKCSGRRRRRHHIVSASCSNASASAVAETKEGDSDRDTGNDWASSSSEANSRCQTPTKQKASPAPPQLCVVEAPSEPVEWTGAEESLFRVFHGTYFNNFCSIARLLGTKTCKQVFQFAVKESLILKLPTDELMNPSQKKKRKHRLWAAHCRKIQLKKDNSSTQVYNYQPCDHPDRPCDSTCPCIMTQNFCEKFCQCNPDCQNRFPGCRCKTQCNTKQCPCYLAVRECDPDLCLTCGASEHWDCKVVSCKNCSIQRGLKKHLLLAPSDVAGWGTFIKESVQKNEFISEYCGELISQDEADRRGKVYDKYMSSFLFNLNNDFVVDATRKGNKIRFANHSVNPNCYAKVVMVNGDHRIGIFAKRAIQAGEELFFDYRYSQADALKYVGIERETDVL
EZH1/EED/SUZ12 (h), sequence (O75530 whole entry partner): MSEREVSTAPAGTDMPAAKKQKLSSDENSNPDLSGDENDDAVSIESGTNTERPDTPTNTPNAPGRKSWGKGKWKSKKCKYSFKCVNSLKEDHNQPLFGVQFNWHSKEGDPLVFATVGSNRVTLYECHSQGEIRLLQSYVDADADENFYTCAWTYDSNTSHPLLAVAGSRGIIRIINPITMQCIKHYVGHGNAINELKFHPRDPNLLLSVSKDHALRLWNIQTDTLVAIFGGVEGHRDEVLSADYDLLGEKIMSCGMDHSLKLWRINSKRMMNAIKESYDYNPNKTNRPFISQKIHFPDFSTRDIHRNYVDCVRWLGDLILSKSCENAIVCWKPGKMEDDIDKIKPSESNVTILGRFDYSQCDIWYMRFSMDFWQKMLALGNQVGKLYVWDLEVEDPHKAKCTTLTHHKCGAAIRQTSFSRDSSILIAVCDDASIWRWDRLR
EZH1/EED/SUZ12 (h), sequence (Q15022 whole entry partner): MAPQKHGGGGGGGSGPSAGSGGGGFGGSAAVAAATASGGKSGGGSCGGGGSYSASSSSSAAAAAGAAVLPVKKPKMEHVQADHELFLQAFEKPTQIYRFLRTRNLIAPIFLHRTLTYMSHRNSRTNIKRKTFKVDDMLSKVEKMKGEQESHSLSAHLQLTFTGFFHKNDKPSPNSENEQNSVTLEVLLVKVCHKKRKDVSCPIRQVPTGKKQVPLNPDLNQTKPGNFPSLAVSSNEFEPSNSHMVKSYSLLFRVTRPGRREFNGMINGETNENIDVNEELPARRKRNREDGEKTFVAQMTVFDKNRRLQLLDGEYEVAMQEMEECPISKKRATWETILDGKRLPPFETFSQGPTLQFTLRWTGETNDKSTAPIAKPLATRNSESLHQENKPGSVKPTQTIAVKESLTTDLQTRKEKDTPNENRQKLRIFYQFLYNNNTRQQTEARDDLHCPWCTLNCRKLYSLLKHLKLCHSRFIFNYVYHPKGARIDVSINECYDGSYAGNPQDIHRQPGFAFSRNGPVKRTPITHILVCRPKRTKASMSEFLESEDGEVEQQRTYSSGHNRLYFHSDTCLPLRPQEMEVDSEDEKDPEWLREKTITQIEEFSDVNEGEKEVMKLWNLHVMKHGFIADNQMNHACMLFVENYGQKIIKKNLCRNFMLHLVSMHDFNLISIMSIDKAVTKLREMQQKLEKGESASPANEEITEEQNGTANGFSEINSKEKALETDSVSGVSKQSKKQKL

CYP2D6 = CYP2D6 (Homo sapiens, UniProt P10635); assay: in vitro; conditions: human liver microsomes, probe dextromethorphan
CYP2D6, sequence (P10635 whole entry): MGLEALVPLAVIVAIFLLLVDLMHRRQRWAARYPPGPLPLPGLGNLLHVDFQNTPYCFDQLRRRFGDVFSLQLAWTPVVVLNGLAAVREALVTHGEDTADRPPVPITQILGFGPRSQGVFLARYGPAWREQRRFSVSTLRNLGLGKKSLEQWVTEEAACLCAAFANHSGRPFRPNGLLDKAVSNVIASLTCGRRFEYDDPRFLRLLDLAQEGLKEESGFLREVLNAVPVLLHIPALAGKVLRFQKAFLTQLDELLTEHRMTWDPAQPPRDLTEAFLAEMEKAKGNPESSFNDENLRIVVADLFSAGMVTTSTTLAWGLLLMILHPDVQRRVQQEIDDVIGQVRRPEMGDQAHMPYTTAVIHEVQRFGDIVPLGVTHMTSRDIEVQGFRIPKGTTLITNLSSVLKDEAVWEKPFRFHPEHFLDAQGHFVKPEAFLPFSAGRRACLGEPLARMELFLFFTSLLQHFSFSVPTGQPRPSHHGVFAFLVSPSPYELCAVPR

NSD3/WHSC1L1 (h) = biological target: T2, NSD3/WHSC1L1 (h) (Homo sapiens, UniProt Q9BZ95); assay: Epigenetic enzyme assay, Methyltransferases (MTs); format: biochemical; conditions: 10 μM; read-out: % Inhibition of Control Values
T2 sequence (Q9BZ95 1-1437): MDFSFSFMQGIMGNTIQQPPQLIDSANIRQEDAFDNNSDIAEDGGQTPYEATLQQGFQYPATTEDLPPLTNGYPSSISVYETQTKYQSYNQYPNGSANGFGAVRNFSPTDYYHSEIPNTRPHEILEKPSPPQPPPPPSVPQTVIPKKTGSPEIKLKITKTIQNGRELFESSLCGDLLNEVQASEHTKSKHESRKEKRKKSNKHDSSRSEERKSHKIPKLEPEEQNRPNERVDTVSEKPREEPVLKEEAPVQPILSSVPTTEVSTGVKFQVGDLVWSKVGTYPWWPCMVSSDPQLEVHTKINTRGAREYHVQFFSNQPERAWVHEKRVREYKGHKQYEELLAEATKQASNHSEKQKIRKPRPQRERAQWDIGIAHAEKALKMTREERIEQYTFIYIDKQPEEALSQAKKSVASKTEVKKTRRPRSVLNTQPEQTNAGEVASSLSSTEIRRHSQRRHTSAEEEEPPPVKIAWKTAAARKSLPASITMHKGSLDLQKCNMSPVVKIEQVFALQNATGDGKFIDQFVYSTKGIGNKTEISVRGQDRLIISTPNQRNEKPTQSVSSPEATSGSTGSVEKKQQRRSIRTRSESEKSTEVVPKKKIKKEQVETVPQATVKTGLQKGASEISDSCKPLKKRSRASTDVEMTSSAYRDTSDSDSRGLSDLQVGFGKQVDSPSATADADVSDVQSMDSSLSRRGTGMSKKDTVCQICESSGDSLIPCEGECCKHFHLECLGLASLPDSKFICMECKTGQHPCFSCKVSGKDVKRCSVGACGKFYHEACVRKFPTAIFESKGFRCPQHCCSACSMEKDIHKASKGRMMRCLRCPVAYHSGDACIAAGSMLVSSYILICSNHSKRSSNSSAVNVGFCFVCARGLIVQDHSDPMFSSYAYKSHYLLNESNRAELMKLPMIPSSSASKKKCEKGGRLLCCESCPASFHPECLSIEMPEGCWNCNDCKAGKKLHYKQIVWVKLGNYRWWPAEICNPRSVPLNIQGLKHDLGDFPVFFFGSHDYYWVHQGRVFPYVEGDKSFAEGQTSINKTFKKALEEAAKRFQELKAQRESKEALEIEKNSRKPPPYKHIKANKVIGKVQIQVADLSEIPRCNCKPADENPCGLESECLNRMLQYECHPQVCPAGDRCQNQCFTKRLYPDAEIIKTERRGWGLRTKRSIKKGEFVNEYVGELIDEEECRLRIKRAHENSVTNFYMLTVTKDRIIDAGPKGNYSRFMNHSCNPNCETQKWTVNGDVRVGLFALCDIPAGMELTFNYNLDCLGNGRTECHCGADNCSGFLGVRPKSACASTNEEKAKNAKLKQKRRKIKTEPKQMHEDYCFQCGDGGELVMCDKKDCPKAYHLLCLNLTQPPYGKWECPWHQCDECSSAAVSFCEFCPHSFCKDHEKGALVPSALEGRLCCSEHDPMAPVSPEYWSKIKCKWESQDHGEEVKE

| SMILES | inhibition at 10 µM (JMJD2C (h)) [%] | % Inhibition of Control Values (JARID1B (h); 10 μM) | inhibition at 10 µM (JARID1B (h); 10 μM) [%] | IC50 (JARID1B (h); Table 11, inhibition/concentration-response curve) [µM] | inhibition at 10 µM (EZH1/EED/SUZ12 (h)) [%] | inhibition at 1 µM (CYP2D6) [%] | inhibition at 10 µM (CYP2D6) [%] | inhibition at 10 µM (NSD3/WHSC1L1 (h)) [%] |
| --- | --- | --- | --- | --- | --- | --- | --- | --- |
| CC(C)=CCC[C@H](CO)[C@@H]1CC[C@@H](C)c2c1cc(C)c(O)c2O [Compound 1, 7,8,18-trihydroxyserrulat-14-ene] | 35 | significant inhibitory activity | 70 | 3.6 | -1 | 12 to 21 | 45 | -17 |
| CC(C)=CCC[C@@H]1COc2c(C)cc(O)c3c2[C@H]1CC[C@H]3C [Compound 3, 5,18-epoxy-8-hydroxyserrulat-14-ene] | 8 |  | -2 |  | -12 |  |  | -35 |
| CC(C)=CCC[C@H](C)[C@@H]1CC[C@@H](C)c2c1cc(C)c(O)c2O [Compound 4, 7,8-dihydroxyserrulat-14-ene] |  |  |  |  |  | 12 to 21 | 45 |  |
| CC(C)=CCC[C@@H]1C(O)Oc2c(C)cc(O)c3c2[C@H]1CC[C@H]3C (some centres unmarked) [Compound 2, 5,18-epoxyserrulat-14-en-8,18-diol] | 2 |  | 6 |  | 3 | 12 to 21 | 44 | 11 |
